ChEMBL document CHEMBL3885881, “DrugMatrix”

Species on record: Rattus norvegicus
Assay: DrugMatrix - Regimen: Daily Repeat
Format: toxicity, organism-based, Sprague-Dawley
Design: regimen Daily Repeat, gender Male, age 6-8 weeks
Conditions: in vivo, po, route oral GAVAGE; for TOTAL BILIRUBIN / TOTAL PROTEIN / URIC ACID / ALANINE AMINOTRANSFERASE / ALBUMIN / ALKALINE PHOSPHATASE / ASPARTATE AMINOTRANSFERASE / BLOOD UREA NITROGEN / CARBON DIOXIDE / CHLORIDE / CHOLESTEROL / CREATINE PHOSPHOKINASE / CREATININE / GLUCOSE / LIPASE / PHOSPHORUS / POTASSIUM / SODIUM / LACTATE DEHYDROGENASE: tissue Plasma; for ABSOLUTE BASOPHIL / ABSOLUTE EOSINOPHIL / ABSOLUTE LYMPHOCYTE / ABSOLUTE MONOCYTE / BASOPHIL / EOSINOPHIL / ERYTHROCYTE COUNT / HEMATOCRIT / HEMOGLOBIN / LEUKOCYTE COUNT / LYMPHOCYTE / MEAN CORPUSCULAR HEMOGLOBIN / MEAN CORPUSCULAR HEMOGLOBIN CONCENTRATION / MEAN CORPUSCULAR VOLUME / MONOCYTE / NEUTROPHIL / PLATELET COUNT: tissue Blood
[1] = 40 mg/kg, 72 h, dose level Low, time 3 day, […]
[2] = 40 mg/kg, 120 h, dose level Low, time 5 day, […]
[3] = 40 mg/kg, […], dose level Low, time 14 day
[4] = 75 mg/kg, 72 h, dose level High, time 3 day, vehicle 100 % WATER
[5] = 75 mg/kg, 120 h, dose level High, time 5 day, vehicle 100 % WATER

SMILES: C=CCN [ALLYLAMINE]
- TOTAL BILIRUBIN [1]: 0.37 mg/dL
- TOTAL PROTEIN [1]: 6.2 G/DL
- URIC ACID [1]: 0.87 mg/dL
- ABSOLUTE BASOPHIL [2]: 43.3 cells/µL
- ABSOLUTE EOSINOPHIL [2]: 90 cells/µL
- ABSOLUTE LYMPHOCYTE [2]: 7670 cells/µL
- ABSOLUTE MONOCYTE [2]: 220 cells/µL
- BASOPHIL [2]: 0.4%
- EOSINOPHIL [2]: 0.87%
- ERYTHROCYTE COUNT [2]: 6.74 x10E6/uL
- HEMATOCRIT [2]: 45.3%
- HEMOGLOBIN [2]: 14.1 G/DL
- LEUKOCYTE COUNT [2]: 9.63 x10E3/uL
- LYMPHOCYTE [2]: 79.33%
- MEAN CORPUSCULAR HEMOGLOBIN [2]: 20.87 pg
- MEAN CORPUSCULAR HEMOGLOBIN CONCENTRATION [2]: 31 G/DL
- MEAN CORPUSCULAR VOLUME [2]: 67.23 fL
- MONOCYTE [2]: 2.27%
- NEUTROPHIL [2]: 16.57%
- PLATELET COUNT [2]: 1351.33 x10E3/uL
- ALANINE AMINOTRANSFERASE [2]: 42.33 u/L
- ALBUMIN [2]: 4.03 G/DL
- ALKALINE PHOSPHATASE [2]: 470.67 u/L
- ASPARTATE AMINOTRANSFERASE [2]: 72.67 u/L
- BLOOD UREA NITROGEN [2]: 16 mg/dL
- CARBON DIOXIDE [2]: 41 mmol/L
- CHLORIDE [2]: 105.33 MEQ/L
- CHOLESTEROL [2]: 72 mg/dL
- CREATINE PHOSPHOKINASE [2]: 350.33 u/L
- CREATININE [2]: 0.53 mg/dL
- GLUCOSE [2]: 155.33 mg/dL
- LIPASE [2]: 249.67 u/L
- PHOSPHORUS [2]: 9.53 mg/dL
- POTASSIUM [2]: 6.27 MEQ/L
- SODIUM [2]: 147.33 MEQ/L
- TOTAL BILIRUBIN [2]: 0.47 mg/dL
- TOTAL PROTEIN [2]: 6.63 G/DL
- URIC ACID [2]: 0.9 mg/dL
- ABSOLUTE BASOPHIL [3]: 50 cells/µL
- ABSOLUTE EOSINOPHIL [3]: 42 cells/µL
- ABSOLUTE LYMPHOCYTE [3]: 10000 cells/µL
- ABSOLUTE MONOCYTE [3]: 250 cells/µL
- BASOPHIL [3]: 0.38%
- EOSINOPHIL [3]: 0.34%
- ERYTHROCYTE COUNT [3]: 7.47 x10E6/uL
- HEMATOCRIT [3]: 46.98%
- HEMOGLOBIN [3]: 15.52 G/DL
- LEUKOCYTE COUNT [3]: 12.8 x10E3/uL
- LYMPHOCYTE [3]: 78.9%
- MEAN CORPUSCULAR HEMOGLOBIN [3]: 20.78 pg
- MEAN CORPUSCULAR HEMOGLOBIN CONCENTRATION [3]: 33.02 G/DL
- MEAN CORPUSCULAR VOLUME [3]: 62.96 fL
- MONOCYTE [3]: 1.9%
- NEUTROPHIL [3]: 17.96%
- PLATELET COUNT [3]: 1148.8 x10E3/uL
- ALANINE AMINOTRANSFERASE [3]: 29 u/L
- ALBUMIN [3]: 4.18 G/DL
- ALKALINE PHOSPHATASE [3]: 389.8 u/L
- ASPARTATE AMINOTRANSFERASE [3]: 69.2 u/L
- BLOOD UREA NITROGEN [3]: 13.8 mg/dL
- CARBON DIOXIDE [3]: 44.6 mmol/L
- CHLORIDE [3]: 102.4 MEQ/L
- CHOLESTEROL [3]: 74.2 mg/dL
- CREATINE PHOSPHOKINASE [3]: 240 u/L
- CREATININE [3]: 0.76 mg/dL
- GLUCOSE [3]: 131.8 mg/dL
- LACTATE DEHYDROGENASE [3]: 199 u/L
- LIPASE [3]: 11.2 u/L
- PHOSPHORUS [3]: 9.98 mg/dL
- POTASSIUM [3]: 6.2 MEQ/L
- SODIUM [3]: 145.8 MEQ/L
- TOTAL BILIRUBIN [3]: 0.4 mg/dL
- TOTAL PROTEIN [3]: 6.92 G/DL
- URIC ACID [3]: 0.58 mg/dL
- BASOPHIL [4]: 0.63%
- EOSINOPHIL [4]: 0.23%
- ERYTHROCYTE COUNT [4]: 6.73 x10E6/uL
- HEMATOCRIT [4]: 44.27%
- HEMOGLOBIN [4]: 14.4 G/DL
- LEUKOCYTE COUNT [4]: 16.4 x10E3/uL
- LYMPHOCYTE [4]: 77.37%
- MEAN CORPUSCULAR HEMOGLOBIN [4]: 21.43 pg
- MEAN CORPUSCULAR HEMOGLOBIN CONCENTRATION [4]: 32.6 G/DL
- MEAN CORPUSCULAR VOLUME [4]: 65.77 fL
- MONOCYTE [4]: 2.5%
- NEUTROPHIL [4]: 16.67%
- PLATELET COUNT [4]: 1260.67 x10E3/uL
- ALANINE AMINOTRANSFERASE [4]: 39 u/L
- ALBUMIN [4]: 3.9 G/DL
- ALKALINE PHOSPHATASE [4]: 237 u/L
- ASPARTATE AMINOTRANSFERASE [4]: 74.33 u/L
- BLOOD UREA NITROGEN [4]: 13.67 mg/dL
- CARBON DIOXIDE [4]: 24.67 mmol/L
- CHLORIDE [4]: 108 MEQ/L
- CHOLESTEROL [4]: 104.33 mg/dL
- CREATINE PHOSPHOKINASE [4]: 169 u/L
- CREATININE [4]: 0.4 mg/dL
- GLUCOSE [4]: 146 mg/dL
- LACTATE DEHYDROGENASE [4]: 59 u/L
- LIPASE [4]: 35.33 u/L
- PHOSPHORUS [4]: 11.03 mg/dL
- POTASSIUM [4]: 5.8 MEQ/L
- SODIUM [4]: 151 MEQ/L
- TOTAL BILIRUBIN [4]: 0.23 mg/dL
- TOTAL PROTEIN [4]: 6.07 G/DL
- URIC ACID [4]: 1.93 mg/dL
- BASOPHIL [5]: 0.35%
- EOSINOPHIL [5]: 0.7%
- ERYTHROCYTE COUNT [5]: 6.38 x10E6/uL
- HEMATOCRIT [5]: 42.1%
- HEMOGLOBIN [5]: 13.35 G/DL
- LEUKOCYTE COUNT [5]: 11.54 x10E3/uL
- LYMPHOCYTE [5]: 82.75%
- MEAN CORPUSCULAR HEMOGLOBIN [5]: 20.9 pg
- MEAN CORPUSCULAR HEMOGLOBIN CONCENTRATION [5]: 31.65 G/DL
- MEAN CORPUSCULAR VOLUME [5]: 66.05 fL
- MONOCYTE [5]: 2%
- NEUTROPHIL [5]: 6.45%
- PLATELET COUNT [5]: 1169 x10E3/uL
- ALANINE AMINOTRANSFERASE [5]: 28.5 u/L
- ALBUMIN [5]: 4 G/DL
- ALKALINE PHOSPHATASE [5]: 238.5 u/L
- ASPARTATE AMINOTRANSFERASE [5]: 69.5 u/L
- BLOOD UREA NITROGEN [5]: 17.5 mg/dL
- CARBON DIOXIDE [5]: 23 mmol/L
- CHLORIDE [5]: 107.5 MEQ/L
- CHOLESTEROL [5]: 62 mg/dL
- CREATINE PHOSPHOKINASE [5]: 269 u/L
- CREATININE [5]: 0.25 mg/dL
- GLUCOSE [5]: 145 mg/dL
- LACTATE DEHYDROGENASE [5]: 62 u/L
- LIPASE [5]: 19 u/L
- PHOSPHORUS [5]: 13.95 mg/dL
- POTASSIUM [5]: 7.05 MEQ/L
- SODIUM [5]: 149.5 MEQ/L
- TOTAL BILIRUBIN [5]: 0.4 mg/dL
- TOTAL PROTEIN [5]: 6.15 G/DL
- URIC ACID [5]: 2.85 mg/dL
